Earlier results as cited in Sander's compilation of Henry's law constants (doi:10.1039/f19888401985).

assay: Henry solubility constant Hcp at 298.15 K (mol/(m3 Pa)); conditions: reference: Abraham and Matteoli (1988); cited value

SMILES | Henry solubility constant Hcp
[Rn] [radon] | 9.1e-05
CCCC [butane] | 1.3e-05
[He] [helium] | 3.8e-06
CCCCCCCC [octane] | 3.1e-06
[Kr] [krypton] | 2.5e-05
CCCCCCC [heptane] | 4.4e-06
CCCCC [pentane] | 8e-06
[Xe] [xenon] | 4.3e-05
[Ne] [neon] | 4.4e-06
[Ar] [argon] | 1.4e-05
CCCCCC [hexane] | 6.1e-06
